System: 227483-062-R1-J1-PDC complex spheroids with HUVEC/MSC, viability
Test: Anticancer human tumor 227483-062-R1-J1-PDC patient-derived pancreatic carcinoma cell line growth inhibition [CLK]
Conditions: for IC50: curve of first compound; for viability, T/C: stronger effect = lower value; active means viability on the fitted dose curve at most 10% of control; inactive means the rest
In short: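 Patient-derived tumor cells grown as complex spheroids with HUVEC endothelial cells and mesenchymal stem cells, treated with drug combinations. Concentrations descend in half-log steps from near clinical Cmax, or from 10 microM if Cmax unknown.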

[1] = second compound 0.0316 µM, first compound 0.00949 µM
[2] = second compound 0.0316 µM, first compound 0.03 µM
[3] = second compound 0.0316 µM, first compound 0.0949 µM
[4] = second compound 0.0316 µM, first compound 0.3 µM
[5] = second compound 0.1 µM, first compound 0.00949 µM
[6] = second compound 0.1 µM, first compound 0.03 µM
[7] = second compound 0.1 µM, first compound 0.0949 µM
[8] = second compound 0.1 µM, first compound 0.3 µM
[9] = second compound 0.316 µM, first compound 0.00949 µM
[10] = second compound 0.316 µM, first compound 0.03 µM
[11] = second compound 0.316 µM, first compound 0.0949 µM
[12] = second compound 0.316 µM, first compound 0.3 µM
[13] = second compound 1 µM, first compound 0.00949 µM
[14] = second compound 1 µM, first compound 0.03 µM
[15] = second compound 1 µM, first compound 0.0949 µM
[16] = second compound 1 µM, first compound 0.3 µM
[17] = second compound 3.16 µM, first compound 0.00949 µM
[18] = second compound 3.16 µM, first compound 0.03 µM
[19] = second compound 3.16 µM, first compound 0.0949 µM
[20] = second compound 3.16 µM, first compound 0.3 µM
[21] = second compound 10 µM, first compound 0.00949 µM
[22] = second compound 10 µM, first compound 0.03 µM
[23] = second compound 10 µM, first compound 0.0949 µM
[24] = second compound 10 µM, first compound 0.3 µM
[25] = second compound 0.0316 µM, first compound 0.0316 µM
[26] = second compound 0.0316 µM, first compound 0.1 µM
[27] = second compound 0.0316 µM, first compound 0.316 µM
[28] = second compound 0.0316 µM, first compound 1 µM
[29] = second compound 0.0316 µM, first compound 3.16 µM
[30] = second compound 0.0316 µM, first compound 10 µM
[31] = second compound 0.1 µM, first compound 0.0316 µM
[32] = second compound 0.1 µM, first compound 0.1 µM
[33] = second compound 0.1 µM, first compound 0.316 µM
[34] = second compound 0.1 µM, first compound 1 µM
[35] = second compound 0.1 µM, first compound 3.16 µM
[36] = second compound 0.1 µM, first compound 10 µM
[37] = second compound 0.316 µM, first compound 0.0316 µM
[38] = second compound 0.316 µM, first compound 0.1 µM
[39] = second compound 0.316 µM, first compound 0.316 µM
[40] = second compound 0.316 µM, first compound 1 µM
[41] = second compound 0.316 µM, first compound 3.16 µM
[42] = second compound 0.316 µM, first compound 10 µM
[43] = second compound 1 µM, first compound 0.0316 µM
[44] = second compound 1 µM, first compound 0.1 µM
[45] = second compound 1 µM, first compound 0.316 µM
[46] = second compound 1 µM, first compound 1 µM
[47] = second compound 1 µM, first compound 3.16 µM
[48] = second compound 1 µM, first compound 10 µM
[49] = second compound 3.16 µM, first compound 0.0316 µM
[50] = second compound 3.16 µM, first compound 0.1 µM
[51] = second compound 3.16 µM, first compound 0.316 µM
[52] = second compound 3.16 µM, first compound 1 µM
[53] = second compound 3.16 µM, first compound 3.16 µM
[54] = second compound 3.16 µM, first compound 10 µM
[55] = second compound 10 µM, first compound 0.0316 µM
[56] = second compound 10 µM, first compound 0.1 µM
[57] = second compound 10 µM, first compound 0.316 µM
[58] = second compound 10 µM, first compound 1 µM
[59] = second compound 10 µM, first compound 3.16 µM
[60] = second compound 10 µM, first compound 10 µM
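Further: spheroids exposed to compounds for seven days before readout.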
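Wherever viability, T/C is given: percent of DMSO vehicle control luminescence as 100% viability.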

C=CC(=O)Nc1cc(Nc2nccc(-c3cn(C)c4ccccc34)n2)c(OC)cc1N(C)CCN(C)C + CN1CCN(c2cc(C(=O)Nc3cc4cc(-c5cnn(C)c5)ccc4cn3)ccn2)CC1
inactive: viability, T/C (second compound 0.0316 µM, first compound 0.000949 µM) 101% | viability, T/C (second compound 0.0316 µM, first compound 0.003 µM) 104% | viability, T/C [1] 117% | viability, T/C [2] 99.1% | viability, T/C [3] 87.5% | viability, T/C [4] 79.2% | viability, T/C (second compound 0.1 µM, first compound 0.000949 µM) 71.5% | viability, T/C (second compound 0.1 µM, first compound 0.003 µM) 64.6% | viability, T/C [5] 61.5% | viability, T/C [6] 77% | viability, T/C [7] 68% | viability, T/C [8] 56%
> 300 nM: IC50 (second compound 0.0316 µM) | IC50 (second compound 0.1 µM)
active: viability, T/C (second compound 0.316 µM, first compound 0.000949 µM) 4.77% | viability, T/C (second compound 0.316 µM, first compound 0.003 µM) 5.57% | viability, T/C [9] 5.48% | viability, T/C [10] 5.73% | viability, T/C [11] 8.02% | viability, T/C [12] 4.25% | viability, T/C (second compound 1 µM, first compound 0.000949 µM) 3.69% | viability, T/C (second compound 1 µM, first compound 0.003 µM) 1.6% | viability, T/C [13] 2.26% | viability, T/C [14] 4.39% | viability, T/C [15] 2.66% | viability, T/C [16] 1.57% | viability, T/C (second compound 3.16 µM, first compound 0.000949 µM) 3.65% | viability, T/C (second compound 3.16 µM, first compound 0.003 µM) 4.21% | viability, T/C [17] 3% | viability, T/C [18] 7.42% | viability, T/C [19] 2.8% | viability, T/C [20] 5.59% | viability, T/C (second compound 10 µM, first compound 0.000949 µM) 3.23% | viability, T/C (second compound 10 µM, first compound 0.003 µM) 6.58% | viability, T/C [21] 2.57% | viability, T/C [22] 4.96% | viability, T/C [23] 2.09% | viability, T/C [24] 1.83%
< 0.949 nM: IC50 (second compound 0.316 µM) | IC50 (second compound 1 µM) | IC50 (second compound 3.16 µM) | IC50 (second compound 10 µM)

CC1(C)CCC(CN2CCN(c3ccc(C(=O)NS(=O)(=O)c4ccc(NCC5CCOCC5)c([N+](=O)[O-])c4)c(Oc4cnc5[nH]ccc5c4)c3)CC2)=C(c2ccc(Cl)cc2)C1 + CN1CCN(c2cc(C(=O)Nc3cc4cc(-c5cnn(C)c5)ccc4cn3)ccn2)CC1
5670 nM: IC50 (second compound 0.0316 µM)
< 31.6 nM: IC50 (second compound 0.316 µM) | IC50 (second compound 1 µM) | IC50 (second compound 3.16 µM) | IC50 (second compound 10 µM)
active: viability, T/C [36] 6.59% | viability, T/C [37] 5.04% | viability, T/C [38] 6.53% | viability, T/C [39] 5.51% | viability, T/C [40] 5.88% | viability, T/C [41] 6.54% | viability, T/C [42] 1.59% | viability, T/C [43] 2.1% | viability, T/C [44] 2.74% | viability, T/C [45] 2.88% | viability, T/C [46] 2.08% | viability, T/C [47] 1.44% | viability, T/C [48] 0.36% | viability, T/C [49] 3.39% | viability, T/C [50] 4.13% | viability, T/C [51] 2.75% | viability, T/C [52] 2.22% | viability, T/C [53] 2.43% | viability, T/C [54] 2.73% | viability, T/C [55] 2.85% | viability, T/C [56] 2.4% | viability, T/C [57] 1.5% | viability, T/C [58] 4.14% | viability, T/C [59] 1.34% | viability, T/C [60] 0.39%
4230 nM: IC50 (second compound 0.1 µM)
inactive: viability, T/C [25] 93.9% | viability, T/C [26] 96.5% | viability, T/C [27] 110% | viability, T/C [28] 110% | viability, T/C [29] 89.8% | viability, T/C [30] 11.5% | viability, T/C [31] 58% | viability, T/C [32] 58.1% | viability, T/C [33] 63.1% | viability, T/C [34] 62.7% | viability, T/C [35] 81.3%

NC(=O)C(=Cn1cnc(-c2cc(C(F)(F)F)cc(C(F)(F)F)c2)n1)c1cncnc1 + CN1CCN(c2cc(C(=O)Nc3cc4cc(-c5cnn(C)c5)ccc4cn3)ccn2)CC1
active: viability, T/C (second compound 0.0316 µM, first compound 3 µM) 5.44% | viability, T/C [8] 13.9% | viability, T/C (second compound 0.1 µM, first compound 0.949 µM) 3.19% | viability, T/C (second compound 0.1 µM, first compound 3 µM) 1.66% | viability, T/C [9] 3.14% | viability, T/C [10] 3.15% | viability, T/C [11] 1.63% | viability, T/C [12] 1.68% | viability, T/C (second compound 0.316 µM, first compound 0.949 µM) 1.4% | viability, T/C (second compound 0.316 µM, first compound 3 µM) 1.39% | viability, T/C [13] 1.5% | viability, T/C [14] 1.97% | viability, T/C [15] 1.83% | viability, T/C [16] 2.32% | viability, T/C (second compound 1 µM, first compound 0.949 µM) 2.43% | viability, T/C (second compound 1 µM, first compound 3 µM) 2.17% | viability, T/C [17] 1.89% | viability, T/C [18] 3.42% | viability, T/C [19] 3.73% | viability, T/C [20] 5.05% | viability, T/C (second compound 3.16 µM, first compound 0.949 µM) 3.43% | viability, T/C (second compound 3.16 µM, first compound 3 µM) 3.12% | viability, T/C [21] 1.57% | viability, T/C [22] 2.14% | viability, T/C [23] 2.32% | viability, T/C [24] 2.15% | viability, T/C (second compound 10 µM, first compound 0.949 µM) 1.97% | viability, T/C (second compound 10 µM, first compound 3 µM) 1.44%
62.1 nM: IC50 (second compound 0.1 µM)
inactive: viability, T/C [1] 83.4% | viability, T/C [2] 105% | viability, T/C [3] 78.6% | viability, T/C [4] 60.6% | viability, T/C (second compound 0.0316 µM, first compound 0.949 µM) 18.8% | viability, T/C [5] 69.7% | viability, T/C [6] 76.6% | viability, T/C [7] 35.9%
< 9.49 nM: IC50 (second compound 0.316 µM) | IC50 (second compound 1 µM) | IC50 (second compound 3.16 µM) | IC50 (second compound 10 µM)
387 nM: IC50 (second compound 0.0316 µM)

Nc1ccccc1NC(=O)c1ccc(CNC(=O)OCc2cccnc2)cc1 + CN1CCN(c2cc(C(=O)Nc3cc4cc(-c5cnn(C)c5)ccc4cn3)ccn2)CC1
< 31.6 nM: IC50 (second compound 0.316 µM) | IC50 (second compound 1 µM) | IC50 (second compound 3.16 µM) | IC50 (second compound 10 µM)
active: viability, T/C [37] 4.44% | viability, T/C [38] 6.25% | viability, T/C [39] 7.44% | viability, T/C [40] 3.95% | viability, T/C [41] 1.6% | viability, T/C [42] 1.34% | viability, T/C [43] 2.7% | viability, T/C [44] 1.53% | viability, T/C [45] 1.99% | viability, T/C [46] 2.47% | viability, T/C [47] 1.45% | viability, T/C [48] 1.58% | viability, T/C [49] 3.26% | viability, T/C [50] 4.66% | viability, T/C [51] 2.26% | viability, T/C [52] 2.68% | viability, T/C [53] 2.71% | viability, T/C [54] 2.41% | viability, T/C [55] 3.24% | viability, T/C [56] 1.86% | viability, T/C [57] 2.94% | viability, T/C [58] 2.31% | viability, T/C [59] 2.71% | viability, T/C [60] 1.85%
1040 nM: IC50 (second compound 0.1 µM)
> 10000 nM: IC50 (second compound 0.0316 µM)
inactive: viability, T/C [25] 106% | viability, T/C [26] 108% | viability, T/C [27] 107% | viability, T/C [28] 126% | viability, T/C [29] 131% | viability, T/C [30] 51.6% | viability, T/C [31] 63.7% | viability, T/C [32] 76% | viability, T/C [33] 57.4% | viability, T/C [34] 48.6% | viability, T/C [35] 36.9% | viability, T/C [36] 17.1%
